{"source": "patent US10112899B2", "about": "(ViiV HEALTHCARE UK LIMITED, priority 2014, dated 2018)", "data": [{"system": "HIV in the HTLV-1 transformed cell line MT-4", "assay": "organism not typed", "format": "cell-based", "conditions": "MT4, 96 h, MT-4 cells; luciferase/cell titer glo readout after 96 hours; 10 point dose response", "units": {"IC50": "nM"}, "values": [{"smiles": "Cc1ccc(-c2c(C)c3c(c(C)c2[C@H](OC(C)(C)C)C(=O)O)CN(C(=O)c2cc(F)c(Cl)c(Cl)c2)C3)cc1", "note": "[Example 277, (S)-2-(tert-butoxy)-2-(2-(3,4-dichloro-5-fluorobenzoyl)-4,7-dimethyl-6-(p-tolyl)isoindolin-5-yl)acetic acid]", "IC50": 14}, {"smiles": "Cc1ccc(-c2c(C)c3c(c(C)c2[C@H](OC(C)(C)C)C(=O)O)CN(C(=O)c2cc(C)c(F)c(F)c2)C3)cc1", "note": "[Example 278, (S)-2-(tert-butoxy)-2-(2-(3,4-difluoro-5-methylbenzoyl)-4,7-dimethyl-6-(p-tolyl)isoindolin-5-yl)acetic acid]", "IC50": 5}, {"smiles": "Cc1ccc(-c2c(C)c3c(c(C)c2[C@H](OC(C)(C)C)C(=O)O)CN(C(=O)c2cc(F)c(F)c(F)c2)C3)cc1", "note": "[Example 279, (S)-2-(tert-butoxy)-2-(4,7-dimethyl-6-(p-tolyl)-2-(3,4,5-trifluorobenzoyl)isoindolin-5-yl)acetic acid]", "IC50": 4}, {"smiles": "Cc1ccc(-c2c(C)c3c(c(C)c2[C@H](OC(C)(C)C)C(=O)O)CN(C(=O)c2cc(F)c(F)c(Cl)c2)C3)cc1", "note": "[Example 280, (S)-2-(tert-butoxy)-2-(2-(3-chloro-4,5-difluorobenzoyl)-4,7-dimethyl-6-(p-tolyl)isoindolin-5-yl)acetic acid]", "IC50": 8}, {"smiles": "Cc1ccc(-c2c(C)c3c(c(C)c2[C@H](OC(C)(C)C)C(=O)O)CN(C(=O)c2cc(Cl)c(F)c(Cl)c2)C3)cc1", "note": "[Example 281, (S)-2-(tert-butoxy)-2-(2-(3,5-dichloro-4-fluorobenzoyl)-4,7-dimethyl-6-(p-tolyl)isoindolin-5-yl)acetic acid]", "IC50": 17}, {"smiles": "Cc1ccc(-c2c(C)c3c(c(C)c2[C@H](OC(C)(C)C)C(=O)O)CN(C(=O)c2cc(F)c(Cl)c(F)c2)C3)cc1", "note": "[Example 282, (S)-2-(tert-butoxy)-2-(2-(4-chloro-3,5-difluorobenzoyl)-4,7-dimethyl-6-(p-tolyl)isoindolin-5-yl)acetic acid]", "IC50": 7}, {"smiles": "Cc1ccc(-c2c(C)c3c(c(C)c2[C@H](OC(C)(C)C)C(=O)O)CN(C(=O)c2ccc(C)nc2)C3)cc1", "note": "[Example 283, (S)-2-(tert-butoxy)-2-(4,7-dimethyl-2-(6-methylnicotinoyl)-6-(p-tolyl)isoindolin-5-yl)acetic acid]", "IC50": 13}, {"smiles": "COc1cccc(C(=O)N2Cc3c(C)c(-c4ccc(C)cc4)c([C@H](OC(C)(C)C)C(=O)O)c(C)c3C2)c1OC", "note": "[Example 284, (S)-2-(tert-butoxy)-2-(2-(2,3-dimethoxybenzoyl)-4,7-dimethyl-6-(p-tolyl)isoindolin-5-yl)acetic acid]", "IC50": 48}, {"smiles": "Cc1ccc(-c2c(C)c3c(c(C)c2[C@H](OC(C)(C)C)C(=O)O)CN(C(=O)OCC(C)(C)C)C3)cc1", "note": "[Example 287, (S)-2-(tert-butoxy)-2-(4,7-dimethyl-2-((neopentyloxy)carbonyl)-6-(p-tolyl)isoindolin-5-yl)acetic acid]", "IC50": 5}, {"smiles": "Cc1ccc(-c2c(C)c3c(c(C)c2[C@H](OC(C)(C)C)C(=O)O)CN(C(=S)c2cccc(F)c2)C3)cc1", "note": "[Example 288, (S)-2-(tert-butoxy)-2-(2-(3-fluorophenylcarbonothioyl)-4,7-dimethyl-6-(p-tolyl)isoindolin-5-yl)acetic acid]", "IC50": 15}, {"smiles": "Cc1ccc(-c2c(C)c3c(c(C)c2[C@H](OC(C)(C)C)C(=O)O)CN(S(=O)(=O)N2CCC(F)(F)C2)C3)cc1", "note": "[Example 289, (S)-2-(tert-butoxy)-2-(2-((3,3-difluoropyrrolidin-1-yl)sulfonyl)-4,7-dimethyl-6-(p-tolyl)isoindolin-5-yl)acetic acid]", "IC50": 14}, {"smiles": "Cc1ccc(-c2c(C)c3c(c(C)c2[C@H](OC(C)(C)C)C(=O)O)CN(C(=O)NCc2ncccn2)C3)cc1", "note": "[Example 290, (S)-2-(tert-butoxy)-2-(4,7-dimethyl-2-((pyrimidin-2-ylmethyl)carbamoyl)-6-(p-tolyl)isoindolin-5-yl)acetic acid]", "IC50": 2560}, {"smiles": "Cc1ccc(-c2c(C)c3c(c(C)c2[C@H](OC(C)(C)C)C(=O)O)CN(C(=O)N2CCC(C)(C)C2)C3)cc1", "note": "[Example 291, (S)-2-(tert-butoxy)-2-(2-(3,3-dimethylpyrrolidine-1-carbonyl)-4,7-dimethyl-6-(p-tolyl)isoindolin-5-yl)acetic acid]", "IC50": 5}, {"smiles": "Cc1ccc(-c2c(C)c3c(c(C)c2[C@H](OC(C)(C)C)C(=O)O)CN(C(=O)N2CCC[C@H]2C)C3)cc1", "note": "[Example 292, (S)-2-(tert-butoxy)-2-(4,7-dimethyl-2-((R)-2-methylpyrrolidine-1-carbonyl)-6-(p-tolyl)isoindolin-5-yl)acetic acid]", "IC50": 5}, {"smiles": "Cc1ccc(-c2c(C)c3c(c(C)c2[C@H](OC(C)(C)C)C(=O)O)CN(C(=O)N2CCCC[C@@H]2C)C3)cc1", "note": "[Example 293, (S)-2-(tert-butoxy)-2-(4,7-dimethyl-2-((S)-2-methylpiperidine-1-carbonyl)-6-(p-tolyl)isoindolin-5-yl)acetic acid]", "IC50": 4}, {"smiles": "Cc1ccc(-c2c(C)c3c(c(C)c2[C@H](OC(C)(C)C)C(=O)O)CN(C(=O)N2CC[C@H](F)C2)C3)cc1", "note": "[Example 294, (S)-2-(tert-butoxy)-2-(2-((S)-3-fluoropyrrolidine-1-carbonyl)-4,7-dimethyl-6-(p-tolyl)isoindolin-5-yl)acetic acid]", "IC50": 4}, {"smiles": "Cc1c2c(c(C)c([C@H](OC(C)(C)C)C(=O)O)c1-c1ccc3c4c(ccnc14)CCO3)CN(C(=O)c1cccc(F)c1)C2", "note": "[Example 299, (2S)-2-(tert-butoxy)-2-(6-(2,3-dihydropyrano[4,3,2-de]quinolin-7-yl)-2-(3-fluorobenzoyl)-4,7-dimethylisoindolin-5-yl)acetic acid]", "IC50": 14}, {"smiles": "Cc1c2c(c(C)c([C@H](OC(C)(C)C)C(=O)O)c1C1=CCC(C)(C)CC1)CN(C(=O)c1cccc(F)c1)C2", "note": "[Example 302, (S)-2-(tert-butoxy)-2-(6-(4,4-dimethylcyclohex-1-en-1-yl)-2-(3-fluorobenzoyl)-4,7-dimethylisoindolin-5-yl)acetic acid]", "IC50": 4}, {"smiles": "Cc1c2c(c(C)c([C@H](OC(C)(C)C)C(=O)O)c1-c1ccc3c(c1)CCCO3)CN(C(=O)c1cccc(F)c1)C2", "note": "[Example 304, (S)-2-(tert-butoxy)-2-(6-(chroman-6-yl)-2-(3-fluorobenzoyl)-4,7-dimethylisoindolin-5-yl)acetic acid]", "IC50": 4}, {"smiles": "Cc1c(-c2c(C)c3c(c(C)c2[C@H](OC(C)(C)C)C(=O)O)CN(C(=O)c2cccc(F)c2)C3)ccc2c1CCCO2", "note": "[Example 305, (2S)-2-(tert-butoxy)-2-(2-(3-fluorobenzoyl)-4,7-dimethyl-6-(5-methylchroman-6-yl)isoindolin-5-yl)acetic acid]", "IC50": 2}, {"smiles": "Cc1c2c(c(C)c([C@H](OC(C)(C)C)C(=O)O)c1C1=CCC(C)(C)CC1)CN(C(=O)c1cccc3c1OCO3)C2", "note": "[Example 307, (S)-2-(2-(benzo[d][1,3]dioxole-4-carbonyl)-6-(4,4-dimethylcyclohex-1-en-1-yl)-4,7-dimethylisoindolin-5-yl)-2-(tert-butoxy)acetic acid]", "IC50": 4}, {"smiles": "Cc1c2c(c(C)c([C@H](OC(C)(C)C)C(=O)O)c1-c1ccc(Cl)cc1)CN(C(=O)c1cccc3c1OCO3)C2", "note": "[Example 308, (S)-2-(2-(benzo[d][1,3]dioxole-4-carbonyl)-6-(4-chlorophenyl)-4,7-dimethylisoindolin-5-yl)-2-(tert-butoxy)acetic acid]", "IC50": 4}, {"smiles": "Cc1ccc(-c2c(C)c3c(c(C)c2[C@H](OC(C)(C)C)C(=O)O)CN(C(=O)c2cccc4c2OCO4)C3)c(Cl)c1", "note": "[Example 309, (2S)-2-(2-(benzo[d][1,3]dioxole-4-carbonyl)-6-(2-chloro-4-methylphenyl)-4,7-dimethylisoindolin-5-yl)-2-(tert-butoxy)acetic acid]", "IC50": 4}, {"smiles": "Cc1c(-c2c(C)c3c(c(C)c2[C@H](OC(C)(C)C)C(=O)O)CN(C(=O)c2cccc4c2OCO4)C3)cc(F)c2c1NCCO2", "note": "[Example 310, (2S)-2-(2-(benzo[d][1,3]dioxole-4-carbonyl)-6-(8-fluoro-5-methyl-3,4-dihydro-2H-benzo[b][1,4]oxazin-6-yl)-4,7-dimethylisoindolin-5-yl)-2-(tert-butoxy)acetic acid]", "IC50": 18}, {"smiles": "Cc1c2c(c(C)c([C@H](OC(C)(C)C)C(=O)O)c1-c1ccc3c(c1)CCCO3)CN(C(=O)N1CCC(F)(F)C1)C2", "note": "[Example 313, (S)-2-(tert-butoxy)-2-(6-(chroman-6-yl)-2-(3,3-difluoropyrrolidine-1-carbonyl)-4,7-dimethylisoindolin-5-yl)acetic acid]", "IC50": 4}, {"smiles": "Cc1ccc(-c2c(C)c3c(c(C)c2[C@H](OC(C)(C)C)C(=O)O)CN(C(=O)N2CCC(F)(F)C2)C3)c(Cl)c1", "note": "[Example 314, (2S)-2-(tert-butoxy)-2-(6-(2-chloro-4-methylphenyl)-2-(3,3-difluoropyrrolidine-1-carbonyl)-4,7-dimethylisoindolin-5-yl)acetic acid]", "IC50": 4}, {"smiles": "Cc1c(-c2c(C)c3c(c(C)c2[C@H](OC(C)(C)C)C(=O)O)CN(C(=O)N2CCC(F)(F)C2)C3)cc(F)c2c1NCCO2", "note": "[Example 315, (2S)-2-(tert-butoxy)-2-(2-(3,3-difluoropyrrolidine-1-carbonyl)-6-(8-fluoro-5-methyl-3,4-dihydro-2H-benzo[b][1,4]oxazin-6-yl)-4,7-dimethylisoindolin-5-yl) acetic acid]", "IC50": 15}]}, {"system": "HIV in the HTLV-1 transformed cell line MT-4", "assay": "organism not typed", "format": "cell-based", "conditions": "MT-4 cells; luciferase/cell titer glo readout after 96 hours; 10 point dose response", "units": {"IC50": "nM"}, "values": [{"smiles": "Cc1c(-c2c(C)c3c(c(C)c2[C@H](OC(C)(C)C)C(=O)O)CN(C(=O)c2cccc(F)c2)C3)ccc2c1NCCO2", "note": "[Example 303, (2S)-2-(tert-butoxy)-2-(2-(3-fluorobenzoyl)-4,7-dimethyl-6-(5-methyl-3,4-dihydro-2H-benzo[b][1,4]oxazin-6-yl)isoindolin-5-yl)acetic acid]", "IC50": 5}, {"smiles": "Cc1c(-c2c(C)c3c(c(C)c2[C@H](OC(C)(C)C)C(=O)O)CN(C(=O)c2cccc(F)c2)C3)ccc2c1NCCO2", "note": "[Example 311, (2S)-2-(tert-butoxy)-2-(2-(3-fluorobenzoyl)-4,7-dimethyl-6-(5-methyl-3,4-dihydro-2H-benzo[b][1,4]oxazin-6-yl)isoindolin-5-yl)acetic acid]", "IC50": 15}]}]}
